# Data from patent US20230123334A1, “AMINO LIPID COMPOUND, PREPARATION METHOD THEREFOR, AND APPLICATION THEREOF” (SHENZHEN SHENXIN BIOTECHNOLOGY CO., LTD., priority 2020, published 2023).
# System: HEK293 cells
# Test: Preliminary screening as DNA vectors, GFP transfection of HEK293 cells
# Assay type: cell-based
# Conditions: amino lipid/DOPE liposome with 75 ng plasmid DNA (psin-EGFP-IRES-Puro); number of GFP-expressing cells divided by total nuclei (Hoechst)
# Method in brief: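 First, amino lipid and DOPE were vortexed in sodium acetate buffer (pH 5.6) to form liposomes. Next, these were held with 75 ng EGFP plasmid at room temperature for 30 min. Finally, HEK293 cells were added, cultured at 37° C., Hoechst-stained, and GFP+/total nuclei scored by imaging.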
row,Structure (SMILES),Absolute DNA transfection efficiency in HEK293 cells [%]
1,CCCCCCCCCCCCCCCNc1nc(NCCN(CC)CC)nc(SCCCCCCCCCCCC)n1 [S12N15 D7],3.6
2,CCCCCCCCCCCCCCCNc1nc(NCCCN2CCOCC2)nc(SCCCCCCCCCCCC)n1 [S12N15 D8],0.0
3,CCCCCCCCCCCCCCCNc1nc(NCCCN2CCN(C)CC2)nc(SCCCCCCCCCCCC)n1 [S12N15 D9],0.2
4,CCCCCCCCCCCCCCCNc1nc(NCC2CCN(C)CC2)nc(SCCCCCCCCCCCC)n1 [S12N15 D10],4.0
5,CCCCCCCCCCCCCCCCNc1nc(NCCN(C)C)nc(SCCCCCCCCCCCC)n1 [S12N16 D1],0.5
6,CCCCCCCCCCCCCCCCNc1nc(NCCN2CCOCC2)nc(SCCCCCCCCCCCC)n1 [S12N16 D2],0.0
7,CCCCCCCCCCCCCCCCNc1nc(NCCN2CCCC2)nc(SCCCCCCCCCCCC)n1 [S12N16 D3],2.6
8,CCCCCCCCCCCCCCCCNc1nc(NCCN2CCCCC2)nc(SCCCCCCCCCCCC)n1 [S12N16 D4],0.7
9,CCCCCCCCCCCCCCCCNc1nc(NCCN2CCN(C)CC2)nc(SCCCCCCCCCCCC)n1 [S12N16 D5],0.7
10,CCCCCCCCCCCCCCCCNc1nc(NCCCN(C)C)nc(SCCCCCCCCCCCC)n1 [S12N16 D6],2.1
11,CCCCCCCCCCCCCCCCNc1nc(NCCN(CC)CC)nc(SCCCCCCCCCCCC)n1 [S12N16 D7],3.6
12,CCCCCCCCCCCCCCCCNc1nc(NCCCN2CCOCC2)nc(SCCCCCCCCCCCC)n1 [S12N16 D8],0.0
13,CCCCCCCCCCCCCCCCNc1nc(NCCCN2CCN(C)CC2)nc(SCCCCCCCCCCCC)n1 [S12N16 D9],0.4
14,CCCCCCCCCCCCCCCCNc1nc(NCC2CCN(C)CC2)nc(SCCCCCCCCCCCC)n1 [S12N16 D10],2.4
15,CCCCCCCCCCCCCCCCCCNc1nc(NCCN(C)C)nc(SCCCCCCCCCCCC)n1 [S12N18 D1],0.7
16,CCCCCCCCCCCCCCCCCCNc1nc(NCCN2CCOCC2)nc(SCCCCCCCCCCCC)n1 [S12N18 D2],0.0
17,CCCCCCCCCCCCCCCCCCNc1nc(NCCN2CCCC2)nc(SCCCCCCCCCCCC)n1 [S12N18 D3],3.9
18,CCCCCCCCCCCCCCCCCCNc1nc(NCCN2CCCCC2)nc(SCCCCCCCCCCCC)n1 [S12N18 D4],0.3
19,CCCCCCCCCCCCCCCCCCNc1nc(NCCN2CCN(C)CC2)nc(SCCCCCCCCCCCC)n1 [S12N18 D5],0.6
20,CCCCCCCCCCCCCCCCCCNc1nc(NCCCN(C)C)nc(SCCCCCCCCCCCC)n1 [S12N18 D6],0.6
21,CCCCCCCCCCCCCCCCCCNc1nc(NCCN(CC)CC)nc(SCCCCCCCCCCCC)n1 [S12N18 D7],0.3
22,CCCCCCCCCCCCCCCCCCNc1nc(NCCCN2CCOCC2)nc(SCCCCCCCCCCCC)n1 [S12N18 D8],0.0
23,CCCCCCCCCCCCCCCCCCNc1nc(NCCCN2CCN(C)CC2)nc(SCCCCCCCCCCCC)n1 [S12N18 D9],0.2

row,Structure (SMILES),Absolute DNA transfection efficiency in HEK293 cells [%]
1,CCCCCCCCCCCCCCCCCCNc1nc(NCC2CCN(C)CC2)nc(SCCCCCCCCCCCC)n1 [S12N18 D10],3.7
2,CCCCCCCCCCCCSc1nc(NCCN(C)C)nc(N(CCCCCCCCCCCC)CCCCCCCCCCCC)n1 [S12^2N12 D1],0.0
3,CCCCCCCCCCCCSc1nc(NCCN2CCOCC2)nc(N(CCCCCCCCCCCC)CCCCCCCCCCCC)n1 [S12^2N12 D2],0.0
4,CCCCCCCCCCCCSc1nc(NCCN2CCCC2)nc(N(CCCCCCCCCCCC)CCCCCCCCCCCC)n1 [S12^2N12 D3],0.0
5,CCCCCCCCCCCCSc1nc(NCCN2CCCCC2)nc(N(CCCCCCCCCCCC)CCCCCCCCCCCC)n1 [S12^2N12 D4],0.0
6,CCCCCCCCCCCCSc1nc(NCCN2CCN(C)CC2)nc(N(CCCCCCCCCCCC)CCCCCCCCCCCC)n1 [S12^2N12 D5],0.3
7,CCCCCCCCCCCCSc1nc(NCCCN(C)C)nc(N(CCCCCCCCCCCC)CCCCCCCCCCCC)n1 [S12^2N12 D6],0.3
8,CCCCCCCCCCCCSc1nc(NCCN(CC)CC)nc(N(CCCCCCCCCCCC)CCCCCCCCCCCC)n1 [S12^2N12 D7],0.1
9,CCCCCCCCCCCCSc1nc(NCCCN2CCOCC2)nc(N(CCCCCCCCCCCC)CCCCCCCCCCCC)n1 [S12^2N12 D8],0.0
10,CCCCCCCCCCCCSc1nc(NCCCN2CCN(C)CC2)nc(N(CCCCCCCCCCCC)CCCCCCCCCCCC)n1 [S12^2N12 D9],0.1
11,CCCCCCCCCCCCSc1nc(NCC2CCN(C)CC2)nc(N(CCCCCCCCCCCC)CCCCCCCCCCCC)n1 [S12^2N12 D10],0.1
12,CCCCCCCCCCCCCCSc1nc(NCCCCCC)nc(NCCN(C)C)n1 [S14N6 D1],24.1
13,CCCCCCCCCCCCCCSc1nc(NCCCCCC)nc(NCCN2CCOCC2)n1 [S14N6 D2],18.8
14,CCCCCCCCCCCCCCSc1nc(NCCCCCC)nc(NCCN2CCCC2)n1 [S14N6 D3],23.6
15,CCCCCCCCCCCCCCSc1nc(NCCCCCC)nc(NCCN2CCCCC2)n1 [S14N6 D4],2.5
16,CCCCCCCCCCCCCCSc1nc(NCCCCCC)nc(NCCN2CCN(C)CC2)n1 [S14N6 D5],21.7
17,CCCCCCCCCCCCCCSc1nc(NCCCCCC)nc(NCCCN(C)C)n1 [S14N6 D6],30.1
18,CCCCCCCCCCCCCCSc1nc(NCCCCCC)nc(NCCN(CC)CC)n1 [S14N6 D7],20.3
19,CCCCCCCCCCCCCCSc1nc(NCCCCCC)nc(NCCCN2CCOCC2)n1 [S14N6 D8],13.6
20,CCCCCCCCCCCCCCSc1nc(NCCCCCC)nc(NCCCN2CCN(C)CC2)n1 [S14N6 D9],17.4
21,CCCCCCCCCCCCCCSc1nc(NCCCCCC)nc(NCC2CCN(C)CC2)n1 [S14N6 D10],39.0
22,CCCCCCCCCCCCCCSc1nc(NCCCCCCC)nc(NCCN(C)C)n1 [S14N7 D1],12.5
23,CCCCCCCCCCCCCCSc1nc(NCCCCCCC)nc(NCCN2CCOCC2)n1 [S14N7 D2],18.7

row,Structure (SMILES),Absolute DNA transfection efficiency in HEK293 cells [%]
1,CCCCCCCCCCCCCCSc1nc(NCCCCCCC)nc(NCCN2CCCC2)n1 [S14N7 D3],14.4
2,CCCCCCCCCCCCCCSc1nc(NCCCCCCC)nc(NCCN2CCCCC2)n1 [S14N7 D4],3.7
3,CCCCCCCCCCCCCCSc1nc(NCCCCCCC)nc(NCCN2CCN(C)CC2)n1 [S14N7 D5],16.3
4,CCCCCCCCCCCCCCSc1nc(NCCCCCCC)nc(NCCCN(C)C)n1 [S14N7 D6],25.0
5,CCCCCCCCCCCCCCSc1nc(NCCCCCCC)nc(NCCN(CC)CC)n1 [S14N7 D7],10.5
6,CCCCCCCCCCCCCCSc1nc(NCCCCCCC)nc(NCCCN2CCOCC2)n1 [S14N7 D8],13.3
7,CCCCCCCCCCCCCCSc1nc(NCCCCCCC)nc(NCCCN2CCN(C)CC2)n1 [S14N7 D9],16.1
8,CCCCCCCCCCCCCCSc1nc(NCCCCCCC)nc(NCC2CCN(C)CC2)n1 [S14N7 D10],34.6
9,CCCCCCCCCCCCCCSc1nc(NCCCCCCCC)nc(NCCN(C)C)n1 [S14N8 D1],8.9
10,CCCCCCCCCCCCCCSc1nc(NCCCCCCCC)nc(NCCN2CCOCC2)n1 [S14N8 D2],12.9
11,CCCCCCCCCCCCCCSc1nc(NCCCCCCCC)nc(NCCN2CCCC2)n1 [S14N8 D3],24.4
12,CCCCCCCCCCCCCCSc1nc(NCCCCCCCC)nc(NCCN2CCCCC2)n1 [S14N8 D4],2.6
13,CCCCCCCCCCCCCCSc1nc(NCCCCCCCC)nc(NCCN2CCN(C)CC2)n1 [S14N8 D5],19.6
14,CCCCCCCCCCCCCCSc1nc(NCCCCCCCC)nc(NCCCN(C)C)n1 [S14N8 D6],33.4
15,CCCCCCCCCCCCCCSc1nc(NCCCCCCCC)nc(NCCN(CC)CC)n1 [S14N8 D7],1.6
16,CCCCCCCCCCCCCCSc1nc(NCCCCCCCC)nc(NCCCN2CCOCC2)n1 [S14N8 D8],9.8
17,CCCCCCCCCCCCCCSc1nc(NCCCCCCCC)nc(NCCCN2CCN(C)CC2)n1 [S14N8 D9],15.7
18,CCCCCCCCCCCCCCSc1nc(NCCCCCCCC)nc(NCC2CCN(C)CC2)n1 [S14N8 D10],26.2
19,CCCCCCCCCCCCCCSc1nc(NCCCCCCCCC)nc(NCCN(C)C)n1 [S14N9 D1],20.8
20,CCCCCCCCCCCCCCSc1nc(NCCCCCCCCC)nc(NCCN2CCOCC2)n1 [S14N9 D2],9.7
21,CCCCCCCCCCCCCCSc1nc(NCCCCCCCCC)nc(NCCN2CCCC2)n1 [S14N9 D3],30.7
22,CCCCCCCCCCCCCCSc1nc(NCCCCCCCCC)nc(NCCN2CCCCC2)n1 [S14N9 D4],2.0
23,CCCCCCCCCCCCCCSc1nc(NCCCCCCCCC)nc(NCCN2CCN(C)CC2)n1 [S14N9 D5],16.9
